Reference: ChEMBL document CHEMBL3797140, “Acridin-3,6-dialkyldithiourea hydrochlorides as new photosensitizers for photodynamic therapy of mouse leukemia cells” (Bioorg Med Chem, 2016)
Calls of active or inactive are those of the source. The rule behind the calls is not given here.

Tests used:
L1210 [1] = assay: Induction of cytomorphological changes in mouse L1210 cells assessed as condensed chromatin at 0.5 uM preincubated for 1 hr followed by 1.05 J/cm2 UV-A irradiation measured after 6 to 24 hrs by Hoechst 33342 staining-based fluorescence microscopy; type: functional, cell-based
L1210 [2] = assay: Induction of apoptosis in mouse L1210 cells assessed as caspase 9 activation at 0.5 uM preincubated for 1 hr measured after 8 hrs by Western blot method in absence of light; type: cell-based; details: l1210, 8 h
L1210 [3] = assay: Induction of apoptosis in mouse L1210 cells assessed as decrease in Bcl2 level at 0.5 to 1 uM preincubated for 1 hr followed by 1.05 J/cm2 UV-A irradiation measured after 4 to 6 hrs by Western blot method; type: functional, cell-based
L1210 [4] = assay: Induction of cell cycle arrest in mouse L1210 cells assessed as accumulation at sub-G0 phase at 1 uM preincubated for 1 hr followed by 1.05 J/cm2 UV-A irradiation measured after 4 hrs by propidium iodide staining-based flow cytometry (reference value: 16.8 +/- 0.6%); type: functional
L1210 [5] = assay: Induction of apoptosis in mouse L1210 cells at 0.5 uM preincubated for 1 hr followed by 1.05 J/cm2 UV-A irradiation measured after 5 hrs by Annexin Red based flow cytometry; type: functional
[6] = Drug uptake in lysosome of mouse L1210 cells at 2 uM preincubated for 1 hr followed by 1.05 J/cm2 UV-A irradiation by LysoTracker staining-based flow cytometry; type: ADME, cell-based; details: l1210, 2 µM
[7] = Drug uptake in nucleus of mouse L1210 cells at 2 uM preincubated for 1 hr followed by 1.05 J/cm2 UV-A irradiation by SytoRed staining-based flow cytometry; type: ADME, cell-based; details: l1210, 2 µM
L1210 [8] = assay: Induction of cell cycle arrest in mouse L1210 cells assessed as accumulation at sub-G0 phase at 0.5 uM preincubated for 1 hr measured after 4 hrs by propidium iodide staining-based flow cytometry in absence of light (reference value: 16.6 +/- 0.4%); details: l1210, 4 h
[9] = Dark toxicity against mouse L1210 cells assessed as cell viability after 48 hrs by MTT assay; type: cell-based
L1210 [10] = assay: Phototoxicity against mouse L1210 cells assessed as cell viability preincubated for 1 hr followed by 1.05 J/cm2 UV-A irradiation measured after 48 hrs by MTT assay in presence of pepstatin A; type: functional, cell-based
[11] = Phototoxicity against mouse NIH/3T3 cells assessed as cell viability preincubated for 1 hr followed by 1.05 J/cm2 UV-A irradiation measured after 48 hrs by MTT assay; type: cell-based; details: NIH3T3, light or radiation study
L1210 [12] = assay: Induction of apoptosis in mouse L1210 cells assessed as caspase 3 activation at 0.5 uM preincubated for 1 hr measured after 8 hrs by Western blot method in absence of light; type: cell-based; details: l1210, 8 h
L1210 [13] = assay: Induction of apoptosis in mouse L1210 cells assessed as caspase 9 activation at 1 uM preincubated for 1 hr followed by 1.05 J/cm2 UV-A irradiation measured after 4 to 6 hrs by Western blot method; type: functional, cell-based
L1210 [14] = assay: Induction of cell cycle arrest in mouse L1210 cells assessed as accumulation at sub-G0 phase at 0.5 uM preincubated for 1 hr measured after 24 hrs by propidium iodide staining-based flow cytometry in absence of light (reference value: 16.6 +/- 0.4%); details: l1210, 24 h
L1210 [15] = assay: Induction of cell cycle arrest in mouse L1210 cells assessed as accumulation at sub-G0 phase at 1 uM preincubated for 1 hr measured after 4 hrs by propidium iodide staining-based flow cytometry in absence of light (reference value: 16.6 +/- 0.4%); details: l1210, 4 h
[16] = Drug uptake in lysosome of mouse L1210 cells at 2 uM preincubated with […] followed by compound exposure for 1 hr followed by 1.05 J/cm2 UV-A irradiation by LysoTracker staining-based flow cytometry; type: ADME, cell-based; details: l1210, 1 h
L1210 [17] = assay: Phototoxicity against mouse L1210 cells assessed as cell viability preincubated for 1 hr followed by 1.05 J/cm2 UV-A irradiation measured after 48 hrs by MTT assay in presence of 3-methyladenine; type: functional, cell-based
[18] = Drug uptake in mitochondria of mouse L1210 cells at 2 uM preincubated for 1 hr followed by 1.05 J/cm2 UV-A irradiation by MitoRed staining-based flow cytometry; type: ADME; details: l1210, 2 µM
[19] = Drug uptake in lysosome of mouse L1210 cells at 2 uM preincubated with 10.5 nM bafilomycin A1 followed by compound exposure for 1 hr followed by 1.05 J/cm2 UV-A irradiation by LysoTracker staining-based flow cytometry; type: ADME, cell-based; details: l1210, 1 h
L1210 [20] = assay: Induction of apoptosis in mouse L1210 cells assessed as late apoptotic cells at 0.5 uM preincubated for 1 hr followed by 1.05 J/cm2 UV-A irradiation measured after 24 hrs by Hoechst 33342 and propidium iodide staining-based fluorescence microscopy; type: functional, cell-based
L1210 [21] = assay: Induction of cell cycle arrest in mouse L1210 cells assessed as accumulation at sub-G0 phase at 1 uM preincubated for 1 hr followed by 1.05 J/cm2 UV-A irradiation measured after 24 hrs by propidium iodide staining-based flow cytometry (reference value: 16.8 +/- 0.6%); type: functional
L1210 [22] = assay: […] in mouse L1210 cells at 1 uM preincubated for 1 hr followed by 1.05 J/cm2 UV-A irradiation measured after 24 hrs by lactate dehydrogenase leakage assay; type: cell-based; details: l1210, 24 h
L1210 [23] = assay: Induction of cell cycle arrest in mouse L1210 cells assessed as accumulation at sub-G0 phase at 0.5 uM preincubated for 1 hr followed by 1.05 J/cm2 UV-A irradiation measured after 4 hrs by propidium iodide staining-based flow cytometry (reference value: 16.8 +/- 0.6%); type: functional
L1210 [24] = assay: Induction of cell cycle arrest in mouse L1210 cells assessed as accumulation at G1 phase at 0.5 and 1 uM preincubated for 1 hr followed by 1.05 J/cm2 UV-A irradiation measured after 24 hrs by propidium iodide staining-based flow cytometry (reference value: 16.8 +/- 0.6%); type: functional
L1210 [25] = assay: Induction of necrosis in mouse L1210 cells at 0.5 uM preincubated for 1 hr followed by 1.05 J/cm2 UV-A irradiation measured after 5 hrs by Annexin Red based flow cytometry; type: functional
[26] = Octanol-water partition coefficient, logP of the compound; type: physicochemical
L1210 [27] = assay: Induction of necrosis in mouse L1210 cells at >= 1 uM preincubated for 1 hr followed by 1.05 J/cm2 UV-A irradiation; type: functional

For `CCCNC(=S)Nc1ccc2cc3ccc(NC(=S)NCCC)cc3nc2c1.Cl`, the Activity (L1210 [1]) was “Active”, the Activity (L1210 [2]) was “Non-toxic” and the Activity (L1210 [3]) was “Active”. For the same molecule, the Activity (L1210 [4]) was 32.5%, the Activity (L1210 [5]) was 24% and the Drug uptake [6] was “Active”. The Drug uptake [7] was “Active”, the Activity (L1210 [8]) was 17.7% and the IC50 at 48 h [9] was 5.7 µM. For the same molecule, the Activity (L1210 [10]) was “inactive”, the IC50 [11] was 4.4 µM and the Activity (L1210 [12]) was “Non-toxic”. The Activity (L1210 [13]) was “Active”, the Activity (L1210 [14]) was 25.9% and the Activity (L1210 [15]) was 17.2%. For the same molecule, the Drug uptake [16] was “Not Active”, the Activity (L1210 [17]) was “inactive” and the Drug uptake [18] was 53%. For the same molecule, the Drug uptake [19] was “Not Active”, the Activity (L1210 [20]) was “Active” and the Activity (L1210 [21]) was 47.9%. For the same molecule, the Activity (L1210 [22]) was “Non-toxic”, the Activity (L1210 [23]) was 22.5% and the Activity (L1210 [24]) was “Active”. For the same molecule, the Activity (L1210 [25]) was 24%, the logP [26] was 1.28 and the Activity (L1210 [27]) was 95%.
